Results published in patent US20110190246A1, “ESTRATRIENE DERIVATIVES COMPRISING HETEROCYCLIC BIOISOSTERES FOR THE PHENOLIC A-RING” (Bayer Schering Pharma Aktiengesellschaft, priority 2008, published 2011).
One block for each compound: values may come before it.

What was measured:
ERα [1] = molecular target: T1, ERα (Rattus norvegicus, UniProt P06211); assay: Stimulation of uterine growth in vivo in ovariectomized rats; parameters: species or system Wistar rats; details: for uterotrophic activity (increase in relative uterine weight): dose response curves, FIGS. 2-3
T1 construct: from tissue; host or cells: uterus of ovariectomized adult female Wistar rats (in vivo)
T1 sequence (P06211 1-600): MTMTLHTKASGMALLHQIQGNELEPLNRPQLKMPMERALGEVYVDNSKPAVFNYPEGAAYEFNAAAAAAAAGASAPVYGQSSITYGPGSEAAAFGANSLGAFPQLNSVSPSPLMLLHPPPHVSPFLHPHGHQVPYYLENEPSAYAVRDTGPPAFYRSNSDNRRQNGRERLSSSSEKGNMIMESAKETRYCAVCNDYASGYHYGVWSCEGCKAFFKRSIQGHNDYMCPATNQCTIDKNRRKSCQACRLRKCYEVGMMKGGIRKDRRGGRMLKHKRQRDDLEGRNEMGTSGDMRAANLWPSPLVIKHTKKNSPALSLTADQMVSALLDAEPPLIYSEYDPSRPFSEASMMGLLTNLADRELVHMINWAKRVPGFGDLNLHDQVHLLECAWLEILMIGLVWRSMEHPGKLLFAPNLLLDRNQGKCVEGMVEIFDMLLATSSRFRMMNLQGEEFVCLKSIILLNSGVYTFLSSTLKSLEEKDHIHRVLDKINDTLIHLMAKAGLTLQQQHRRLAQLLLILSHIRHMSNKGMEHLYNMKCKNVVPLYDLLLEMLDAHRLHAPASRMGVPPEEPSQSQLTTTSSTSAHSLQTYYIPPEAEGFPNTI

hepatic gene CaBP = assay: Induction of the hepatic gene CaBP (hepatic estrogenicity); type: in vivo; details: dose response curves, FIGS. 1-3
From the text: Data regarding the uterine and hepatic activity of example 1 and example 4 in comparison to Ethinylestradiol are shown in FIGS. 1, 2, and 3. Dose response curves describing the increases in relative uterine weight (closed circles) and the induction of the hepatic gene CaBP (open circles) are shown for ethinylestradiol (FIG 1), example 1 (FIG. 2), and example 4 (FIG. 3). […] This may implicate that compounds of example 1 and 4 show lower hepatic estrogenicity if compared to Ethinylestradiol.

ERα [2] = molecular target: T2, ERα (Homo sapiens, UniProt P03372); assay: Transactivation assay in stably transfected MCF-7 cells (MVLN assay); type: cell-based; parameters: MCF-7 cells endogenously expressing ERα; endogenous in cells; host or cells: MCF-7 stably transfected with vitellogenin-tk-luciferase reporter (MVLN)
T2 sequence (P03372 1-595): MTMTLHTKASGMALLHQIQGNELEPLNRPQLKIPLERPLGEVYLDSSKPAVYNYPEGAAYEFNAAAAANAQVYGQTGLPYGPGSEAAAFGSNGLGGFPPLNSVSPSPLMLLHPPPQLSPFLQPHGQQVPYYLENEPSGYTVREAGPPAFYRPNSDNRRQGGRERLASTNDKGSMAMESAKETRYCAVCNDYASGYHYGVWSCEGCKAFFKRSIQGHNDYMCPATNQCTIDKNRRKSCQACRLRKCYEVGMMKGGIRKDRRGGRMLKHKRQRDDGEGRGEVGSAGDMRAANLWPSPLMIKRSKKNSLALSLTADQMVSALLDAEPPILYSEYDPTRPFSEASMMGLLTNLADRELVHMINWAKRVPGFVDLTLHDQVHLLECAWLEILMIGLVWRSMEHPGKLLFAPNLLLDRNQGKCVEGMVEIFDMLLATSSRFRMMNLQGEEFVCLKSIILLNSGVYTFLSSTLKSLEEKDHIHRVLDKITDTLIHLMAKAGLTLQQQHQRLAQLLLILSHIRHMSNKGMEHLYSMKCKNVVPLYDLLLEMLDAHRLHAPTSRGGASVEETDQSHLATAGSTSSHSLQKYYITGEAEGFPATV
Description: To analyse activation of the ERα by diverse tool compounds in a second cellular system, we used MCF-7 cells endogenously expressing ERα and stably transfected with the estrogen-responsive vitellogenin-tk-luciferase reporter plasmid. […]. Luciferase activity was measured after addition of 25 μl steady-Glo in a TopCount. Dose response curves were generated and EC50 values were calculated using Sigma plot.

[3] = tested on: human cryopreserved hepatocytes; assay: Stability in hepatocytes; type: in vitro ADME; details: maximal theoretical bioavailability
Description: The metabolic stability of test compounds with respect to phase 1 and phase 2 metabolisms was investigated by incubation of the compounds with hepatocytes. These investigations were performed for characterisation of compounds in case of phase 2 metabolism is to be expected. […] After analytical workup the concentrations of the test compounds after different incubation periods were related to the initial concentration of the respective test compound (zero hour's time point). The resulting area under the concentration-time-curve of the test compound investigated in the assay is used to derive the respective Fmax value.

ERα [4] = molecular target: T2, ERα; assay: Transactivation assay in U2OS cells; type: cell-based; details: U2OS cells transiently transfected with ERα and luciferase reporter, 24 hours
[5] = molecular target: T3, estrogen receptor α (ERα) (Homo sapiens, UniProt P03372); assay: Binding to estrogen receptor α (competition with 3H-estradiol); details: KF = IC50 of test compound / IC50 of estradiol
T3 construct: made in house; host or cells: Hi5 insect cells (baculovirus)
Description: The ERα protein used in the binding assay was purified from cytosolic fractions of Hi5 cells transfected with recombinant bacuioviruses encoding either the human ERα. Aliquots of cytosolic fractions were stored at −80° C. and had protein concentrations of 5-7 mg/ml (as determined by the BCA method).
30 μl of cytosol were added leading to a final volume of 50 μl per well. […] The protein-bound radioactivity was measured by addition of 200 μl Microszint-40 (Canberra Packard) to each well using a TopCount scintillation counter.

ERα [6] = molecular target: T2, ERα; assay: Induction of alkaline phosphatase in human endometrial Ishikawa cells; type: cell-based; details: 72 hours, read-out: EC50 Alkaline phoshatase induction, Ishikawa cells
Description: Alkaline phosphatase is an estrogen target gene in the normal uterine epithelium as well as in endometrial-derived cancer cells, such as Ishikawa cells. […]. Ishikawa cells (from European collection of cell cultures) were maintained in phenolred-free MEM with 5% FCS, 4 mM glutamine, 1% non, essential amino acids and 100 U/ml penicillin and 100 μg/ml streptomycin. […]. On the third day, the media were removed; cells were washed two times with 50 μl PBS and then frozen at −80° C. for 20 min. After thawing at room temperature for 10 min, cells were incubated with 100 μl of 1-Step PNPP reagent (Pierce) and incubated for 1.5 h at room temperature. OD was measured at 405 nm sing a Polarstar Optima. Dose response curves were generated using and ED50 values were calculated using Sigma plot.

[7] = luciferase reporter, Table 2, read-out: MVLN-Transactivation (EC50 in nM)

- EC50 (ERα [2]; [7]): 308 nM
SMILES: C[C@]12CCC3c4ccc5[nH]nnc5c4CCC3C1CCC2=O (some centres unmarked) [Example 11, 3′H-Triazolo[4′,5′:3,4]estra-1,3,5(10)-trien-17-on]

- EC50 (ERα [2]; [7]): 12.6 nM
SMILES: C[C@]12CCC3c4ccc5[nH]ncc5c4CCC3C1CCC2=O (some centres unmarked) [Example 2, 2′H-Pyrazolo[3′,4′:3,4]estra-1,3,5(10)-trien-17-one]

- EC50 (ERα [2]; [7]): 130 nM
SMILES: CC[C@]1(O)CCC2C3CCc4c(ccc5[nH]ncc45)C3CC[C@@]21C (stereo partly drawn) [Example 6, 17α-Ethyl-2′H-pyrazolo[3′,4′:3,4]estra-1,3,5(10)-trien-17β-ol]

- EC50 (ERα [2]; [7]): 3.53 nM
SMILES: C[C@]1(O)CCC2C3CCc4c(ccc5[nH]ncc45)C3CC[C@@]21C (stereo partly drawn) [Example 3, 17α-Methyl-2′H-pyrazolo[3′,4′:3,4]estra-1,3,5(10)-trien-17β-ol]

More lines, now with the values behind:

SMILES: C#C[C@]1(O)CCC2C3CCc4c(ccc5[nH]ncc45)C3CC[C@@]21C (stereo partly drawn) [Example 4, 17α-Ethinyl-2′H-pyrazolo[3′,4′:3,4]estra-1,3,5(10)-trien-17β-ol]
- uterotrophic activity (increase in relative uterine weight) (ERα [1]): full uterotrophic activity
- induction of the hepatic gene CaBP (hepatic gene CaBP): do not stimulate this hepatic gene
- EC50 (ERα [2]; [7]): 1.01 nM

SMILES: C[C@]12CCC3c4ccc5[nH]ncc5c4CCC3C1CC[C@@]2(O)C(F)(F)F (stereo partly drawn) [Example 9, 17α-Trifluoromethyl-2′H-pyrazolo[3′,4′:3,4]estra-1,3,5(10)-trien-17β-ol]
- EC50 (ERα [2]; [7]): 77.3 nM

SMILES: C=C[C@]1(O)CCC2C3CCc4c(ccc5[nH]ncc45)C3CC[C@@]21C (stereo partly drawn) [Example 5, 17α-Vinyl-2′H-pyrazolo[3′,4′:3,4]estra-1,3,5(10)-trien-17β-ol]
- EC50 (ERα [2]; [7]): 3.72 nM

SMILES: C=CC[C@]1(O)CCC2C3CCc4c(ccc5[nH]ncc45)C3CC[C@@]21C (stereo partly drawn) [Example 7, 17α-Allyl-2′H-pyrazolo[3′,4′:3,4]estra-1,3,5(10)-trien-17β-ol]
- EC50 (ERα [2]; [7]): 82.6 nM

SMILES: C#C[C@]1(O)CC[C@H]2[C@@H]3CCc4cc(O)ccc4[C@H]3CC[C@@]21C [Ethinylestradiol, reference compound]
- induction of the hepatic gene CaBP (hepatic gene CaBP): significant induction of CaBP

SMILES: C[C@]12CCC3c4ccc5[nH]ncc5c4CCC3C1CC[C@@]2(O)C(F)(F)C(F)(F)F (stereo partly drawn) [Example 10, 17α-Pentafluoroethyl-2′H-pyrazolo[3′,4′:3,4]estra-1,3,5(10)-trien-17β-ol]
- EC50 (ERα [2]; [7]): 270 nM

SMILES: C[C@]12CC[C@@H]3c4ccc(O)cc4CC[C@H]3[C@@H]1CC[C@@H]2O [Estradiol, reference compound]
- Fmax (calculated from hepatocyte stability) [3]: 17%

SMILES: CC#C[C@]1(O)CCC2C3CCc4c(ccc5[nH]ncc45)C3CC[C@@]21C (stereo partly drawn) [Example 8, 17α-(Prop-1-inyl)-2′H-pyrazolo[3′,4′:3,4]estra-1,3,5(10)-trien-17β-ol]
- EC50 (ERα [2]; [7]): 16.5 nM

SMILES: C[C@]12CCC3c4ccc5[nH]ncc5c4CCC3C1CC[C@@H]2O (stereo partly drawn) [Example 1, 2′H-Pyrazolo[3′,4′:3,4]estra-1,3,5(10)-trien-17β-ol]
- Fmax (calculated from hepatocyte stability) [3]: 34%
- uterotrophic activity (increase in relative uterine weight) (ERα [1]): full uterotrophic activity
- ED50 Uterine growth (ERα [1]; ovariectomized Wistar rats, subcutaneously daily for 14 days, relative uterine weight): 8.25 μg/kg bodyweight
- EC50 (ERα [4]): 0.082 nM
- induction of the hepatic gene CaBP (hepatic gene CaBP): do not stimulate this hepatic gene
- ERα binding [KF] [5]: 1.6
- EC50 (ERα [2]; [7]): 1.41 nM
- EC50 (ERα [2]; vitellogenin-tk-luciferase reporter, 24 hours, Table 1, read-out: EC50 ERα transactivation, MVLN assay): 1.42 nM
- EC50 (ERα [6]): 0.759 nM
